In US7833991B2, “Amine compound and use thereof” (Kureha Corporation, priority 2002, dated 2010) one finds inhibition and EC50 data, which are given here for 24 compounds.

The target of experiment [1] is T1, CXCR4 (Homo sapiens, UniProt P61073).
T1 construct: endogenous in cells; host or cells: MT-4 cells
Nature of the experiment: Inhibition of 125I-SDF-1α binding to receptors CXCR4 on MT-4 cells (Test Examples 2 and 5). The settings on record: binding-inhibition % at 0.1 μM, as in Test Example 2; Table 5; read-out: CXCR4 Activity % at 0.1 μM. The method, then: MT-4 cells (5×10^6/0.2 ml/well) were cultured on a 24-well microtiter plate. After the cells were incubated for 24 hours at 37° C. in a carbon dioxide gas incubator, a culture medium was replaced with a buffer solution (0.1% BSA-containing RPMI-1640). Together with a ligand ^125I-SDF-1α, (specific activity: 2,200 Ci/mmol; available from Daiichi Pure Chemicals Co., Ltd. (Tokyo)), test materials with various concentrations were subjected to a binding reaction for 2 hours under ice-cooling. […] Then, a rate of inhibition of the binding between radio-active ligands and receptors CXCR4 by a test material was calculated (a binding-inhibition % at 0.1 μM).
(§1) Compounds of the present invention having various substituted and unsubstituted heterocyclic rings for the substituent A2 of formula (1) were tested for antiviral (anti-HIV) activity as in Test Example 1 and for CXCR4 activity as in Test Example 2. The compounds, various substituents of the compounds, antiviral activity represented by the concentration required for inhibition of all disorder due to HIV injection by 50% (EC50: 50% Effective Concentration, μM), and CXCR4 activity calculated as a rate of inhibition of the binding between radioactive ligands and CXCR4 receptors by a test material (a binding-inhibition % at 0.1 μM) are shown in Table 5: […]

Experiment [2] deals with HIV-1IIIB infected MT-4 cells. Nature of the experiment: Antiviral activity in HIV-1IIIB infected MT-4 cells, MTT method (Test Examples 1 and 5). Type of experiment: cell-based. The settings on record: Human immunodeficiency virus 1, MT4; as in Test Example 1; Table 5; read-out: HIV Activity EC50. The method, then: Immediately after infection, HIV-1IIIB infected MT-4 cells (3.0×10^4/well, MOI (Multiplicity of infection): 0.01) were added to a 96-well microtiter plate together with the test compounds having different concentrations. The cells were cultured in a carbon dioxide incubator at 37° C. for 5 days, and the number of living cells was measured in accordance with the MTT (tetrazolium) method (Pawels, et al., Journal of Virology Method, 20, 309-321 ([…])). The antiviral activity is represented by the concentration required for inhibition of cell disorder due to HIV by 50% (EC50: 50% Effective Concentration) (μM), and the results are shown in Table 2.
as §1
On the technique in general: Formazan colour is commonly taken as a measure of viable cells.

pEC50: −log10 of the molar value.

T1 sequence (P61073 whole entry): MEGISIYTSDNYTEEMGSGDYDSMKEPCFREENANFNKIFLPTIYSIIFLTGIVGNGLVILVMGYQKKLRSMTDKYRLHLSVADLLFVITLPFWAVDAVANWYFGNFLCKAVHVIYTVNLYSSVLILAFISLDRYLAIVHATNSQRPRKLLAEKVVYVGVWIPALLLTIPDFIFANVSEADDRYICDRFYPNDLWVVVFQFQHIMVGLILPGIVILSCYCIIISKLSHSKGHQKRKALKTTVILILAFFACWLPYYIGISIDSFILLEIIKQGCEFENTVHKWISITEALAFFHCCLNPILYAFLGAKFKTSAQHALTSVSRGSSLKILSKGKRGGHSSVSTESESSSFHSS

Regarding `CCCN(CCC)c1ccc(NC(=O)c2ccc(CN(Cc3ncc[nH]3)Cc3ncc[nH]3)cc2)cc1` [Compound No. 15, 4-{[bis(1H-imidazol-2-ylmethyl)-amino]-methyl}-N-(4-dipropylaminophenyl)-benzamide], the inhibition at 0.1 µM in experiment [1] was 46.9%. Regarding `CCCN(CCC)Cc1cccc(NC(=O)c2ccc(CN(Cc3ncc[nH]3)Cc3ncc[nH]3)cc2)c1` [Compound No. 33, 4-{[bis(1H-imidazol-2-ylmethyl)-amino]-methyl}-N-(3-dipropylaminomethylphenyl)-benzamide], the inhibition at 0.1 µM in experiment [1] was found to be 97.8%. Also, in experiment [2], the pEC50 was 7.34. In the same order, the values of `CCCN(CCC)Cc1ccc(NC(=O)c2ccc(CN(Cc3ncc[nH]3)Cc3ncc[nH]3)c3ccccc23)cc1` [Compound No. 36, 4-{[bis(1H-imidazol-2-ylmethyl)-amino]-methyl}-naphtalene-1-carboxylic acid (4-dipropylaminomethylphenyl)-amide] are 89.6% and 6.30.

Turning to `CCCN(CCC)Cc1ccc(NC(=O)c2ccc(CN(Cc3nccn3C)Cc3nccn3C)cc2)cc1` [Compound No. 41, 4-{[bis(1-methyl-1H-imidazol-2-ylmethyl)-amino]-methyl}-N-(4-dipropylaminomethylphenyl)-benzamide], the pEC50 in experiment [2] is 8.52. Take `CCCN(CCC)Cc1ccc(NC(=O)c2ccc(CN(Cc3cc4ccccc4cn3)Cc3ncc[nH]3)cc2)cc1` [Compound No. 47, N-(4-dipropylaminomethylphenyl)-4-{[(1H-imidazol-2-ylmethyl)-(isoquinolin-3-ylmethyl)-amino]-methyl}-benzamide]: in experiment [1], the inhibition at 0.1 µM is 98.8%. In addition, in experiment [2], the pEC50 was 7.70. In the same order, the values of `CCCN(CCC)Cc1ccc(NC(=O)c2ccc(CN(Cc3ccccn3)Cc3ncc[nH]3)cc2)cc1` [Compound No. 48, N-(4-dipropylaminomethylphenyl)-4-{[(1H-imidazol-2-ylmethyl)-(pyridin-2-ylmethyl)-amino]-methyl}-benzamide] are 97.7% and 7.66.

With `CCCN(CCC)Cc1ccc(NC(=O)c2ccc(CN(Cc3ncc[nH]3)Cc3ncccc3C)cc2)cc1` [Compound No. 53, N-(4-dipropylaminomethylphenyl)-4-{[(1H-imidazol-2-ylmethyl)-(3-methylpyridin-2-ylmethyl)-amino]-methyl}-benzamide], the inhibition at 0.1 µM in experiment [1] is 97.7%. Further, the pEC50 in experiment [2] is 8.05. In the same order, the values of `CCCN(CCC)Cc1ccc(NC(=O)c2ccc(CN(Cc3ccc4ccccc4n3)Cc3ncc[nH]3)cc2)cc1` [Compound No. 55, N-(4-dipropylaminomethylphenyl)-4-{[(1H-imidazol-2-ylmethyl)-(quinolin-2-ylmethyl)-amino]-methyl}-benzamide] are 21% and 6.20.

As to `CCCN(CCC)Cc1ccc(NC(=O)c2ccc(CN(Cc3ccc(C)cn3)Cc3ncc[nH]3)cc2)cc1` [Compound No. 56, N-(4-dipropylaminomethylphenyl)-4-{[(1H-imidazol-2-ylmethyl)-(5-methylpyridin-2-ylmethyl)-amino]-methyl}-benzamide], in experiment [1], the inhibition at 0.1 µM is 98.8%. Also, the pEC50 in experiment [2] was 8.52. Turning to `CCCN(CCC)Cc1ccc(NC(=O)c2ccc(CN(Cc3ccncc3)Cc3ncc[nH]3)cc2)cc1` [Compound No. 58, N-(4-dipropylaminomethylphenyl)-4-{[(1H-imidazol-2-ylmethyl)-(pyridin-4-ylmethyl)-amino]-methyl}-benzamide], the inhibition at 0.1 µM in experiment [1] came out at 18.6%. Further, the pEC50 in experiment [2] was 7.01. In the same order, the values of `CCCN(CCC)Cc1ccc(NC(=O)c2ccc(CN(Cc3ncc[nH]3)Cc3ncccc3OCC)cc2)cc1` [Compound No. 59, N-(4-dipropylaminomethylphenyl)-4-{[(1H-imidazol-2-ylmethyl)-(3-ethoxypyridin-2-ylmethyl)-amino]-methyl}-benzamide] are 98.2% and 7.62. In the same order, the values of `CCCN(CCC)Cc1ccc(NC(=O)c2ccc(CN(Cc3ncc[nH]3)Cc3nccc4ccccc34)cc2)cc1` [Compound No. 63, N-(4-dipropylaminomethylphenyl)-4-{[(1H-imidazol-2-ylmethyl)-(isoquinolin-1-ylmethyl)-amino]-methyl}-benzamide] are 14.7% and 7.09. Regarding `CCCN(CCC)Cc1ccc(NC(=O)c2ccc(CN(Cc3ncc[nH]3)Cc3ncc(C)c(OC)c3C)cc2)cc1` [Compound No. 64, N-(4-dipropylaminomethylphenyl)-4-{[(1H-imidazol-2-ylmethyl)-(4-methoxy-3,5-dimethylpyridin-2-ylmethyl)-amino]-methyl}-benzamide], in experiment [1], the inhibition at 0.1 µM stood at 100%. Moreover, in experiment [2], the pEC50 is 7.74. In the same order, the values of `CCCN(CCC)Cc1ccc(NC(=O)c2ccc(CN(Cc3ccc4cccc(O)c4n3)Cc3ncc[nH]3)cc2)cc1` [Compound No. 72, N-(4-dipropylaminomethylphenyl)-4-{[(8-hydroxyquinolin-2-ylmethyl)-(1H-imidazol-2-ylmethyl)-amino]-methyl}-benzamide] are 100% and 8.40. Regarding `CCCN(CCC)Cc1ccc(NC(=O)c2ccc(CN(Cc3ccc(C)cn3)Cc3nccn3C)cc2)cc1` [Compound No. 76, N-(4-dipropylaminomethylphenyl)-4-{[(1-methyl-1H-imidazol-2-ylmethyl)-(5-methylpyridin-2-ylmethyl)-amino]-methyl}-benzamide], in experiment [2], the pEC50 is 8.15. Regarding `CCCN(CCC)Cc1ccc(NC(=O)c2ccc(CN(Cc3cc(C)ccn3)Cc3ncc[nH]3)cc2)cc1` [Compound No. 78, N-(4-dipropylaminomethylphenyl)-4-{[N-(1H-imidazol-2-ylmethyl)-(4-methylpyridin-2-ylmethyl)-amino]-methyl}-benzamide], the pEC50 in experiment [2] was 7.72. On to `Cn1ccnc1CN(Cc1ccc(C(=O)Nc2ccc(CNC3CCCCC3)cc2)cc1)Cc1ncc[nH]1` [Compound No. 88, N-(4-cyclohexylaminomethylphenyl)-4-{[(1H-imidazol-2-ylmethyl)-(1-methyl-1H-imidazol-2-ylmethyl)-amino]-methyl}-benzamide], for which, in experiment [1], the inhibition at 0.1 µM is 99%. Further, the pEC50 in experiment [2] is 8.30. As to `O=C(Nc1ccc(CNC2CCCCC2)cc1)c1ccc(CN(Cc2ncc[nH]2)Cc2ncc[nH]2)cc1` [Compound No. 89, 4-{[bis(1H-imidazol-2-ylmethyl)-amino]-methyl}-N-(4-cyclohexylaminomethylphenyl)-benzamide], the pEC50 in experiment [2] was 8.05. Still for that read-out and setting: to `CCCN(CCC)Cc1ccc(NC(=O)c2ccc(CN(Cc3ncc[nH]3)Cc3nccn3CC)cc2)cc1` [Compound No. 91, N-(4-dipropylaminomethylphenyl)-4-{[(1-ethyl-1H-imidazol-2-ylmethyl)-(1H-imidazol-2-ylmethyl)-amino]-methyl}-benzamide] belongs 7.82; to `CCCN(CCC)Cc1ccc(NC(=O)c2ccc(CN(Cc3ncc[nH]3)Cc3nccn3CCC)cc2)cc1` [Compound No. 92, N-(4-dipropylaminomethylphenyl)-4-{[(1H-imidazol-2-ylmethyl)-(1-propyl-1H-imidazol-2-ylmethyl)-amino]-methyl}-benzamide], 7.32. As to `CCCN(CCC)Cc1ccc(NC(=O)c2ccc(CN(Cc3ncc[nH]3)Cc3nccn3CCO)cc2)cc1` [Compound No. 94, N-(4-dipropylaminomethylphenyl)-4-({[1-(2-hydroxyethyl)-1H-imidazol-2-ylmethyl]-(1H-imidazol-2-ylmethyl)-amino}-methyl)-benzamide], in experiment [1], the inhibition at 0.1 µM is 100%. Further, the negative logarithm of the EC50 (pEC50) in experiment [2] is 8.52. In the same order, the values of `CCCN(CCC)Cc1ccc(NC(=O)c2ccc(CN(Cc3ncc[nH]3)Cc3ncc(C)cc3C)cc2)cc1` [Compound No. 101, 4-{[(3,5-dimethyl-pyridin-2-ylmethyl)-(1H-imidazol-2-ylmethyl)-amino]-methyl}-N-(4-dipropylaminomethyl-phenyl)-benzamide] are 99.1% and 8.30.

For the compound `CCCN(CCC)Cc1ccc(NC(=O)c2ccc(CN(Cc3ccc(CC)cn3)Cc3ncc[nH]3)cc2)cc1` [Compound No. 102, N-(4-dipropylaminomethyl-phenyl)-4-{[(5-ethyl-pyridin-2-ylmethyl)-(1H-imidazol-2-ylmethyl)-amino]-methyl}-benzamide], in experiment [1], the inhibition at 0.1 µM was 98.4%. Further, the pEC50 in experiment [2] was 8.52. As to `CCCN(CCC)Cc1ccc(NC(=O)c2ccc(CN(Cc3nc[nH]n3)Cc3nccn3C)cc2)cc1` [Compound No. 123, N-(4-di-n-propylaminomethyl-phenyl)-4-{[(1-methyl-imidazol-2-ylmethyl)-(1H-[1,2,4]-triazol-3-ylmethyl)-amino]-methyl}-benzamide], the pEC50 in experiment [2] is 7.17.

The pEC50 is the negative decadic logarithm of the EC50, by convention in mol/L.
